Measurements: patent US5229288A, “Cytotoxicity test method” (priority 1990, dated 1993)
Numbered stars: 1 amine (or outer) side, 2 acyl side, 3 side chain; on linkers, the order of the positions; unused ones are H or OH. Bridge positions count the residues as written; N and C are the ends. Square brackets hold non-standard residues; d marks the D form. Peptide text beside a SMILES is read from it. I, II: the chains in the order shown. Actinocin(9to1) = Cc1c2oc3c(C)ccc(C(=O)[*:1])c3nc-2c(C(=O)[*:2])c(N)c1=O; NMeV = CN[C@H](C(=O)O)C(C)C; Sar = CNCC(=O)O

Key:
in vitro = conditions: human, skin fibroblasts
Protocol: (§1) N-Isopropylacrylamide monomer (here "NIPAAm", a product of Eastman Kodak Co.) 50 g was dissolved in 500 ml benzene. 2,2'-Azobisisobutyronitrile (here "AIBN") 0.2 g was used as the polymerization initiator. Polymerization was carried out at 60° C. for 12 hours in a stream of nitrogen gas with constant agitation. The polymer thus obtained was precipitated in benzene and after decantation the precipitates formed were dissolved in tetrahydrofuran and purified with ethyl ether. […] This mixed solution was poured on the bottom of a commercially available plastic culture dish (Falcon, 35 mm), and it was air-dried aseptically in a clean bench at about 10° C. […] Fibroblasts derived from human skin were suspended in Dulbecco's modified Eagle medium ("DMEM", a product of GIBCO, containing 10% (w/v) calf serum) (cell concentration in the suspension: about 2×10^5 cells/ml). Two milliliters of this cell suspension was incubated at 37° C., and then it was poured in the coated dish which was pre-incubated at 37° C. It was cultured at 37° C. for 3 days in an air/5 volume% CO2 gas incubator. After 3 days at which point the cultured cells covered the surface of the bottom of the dish completely, the dish was taken out from the 37° C. incubator and left to stand at 4° C. on ice. After the cell sheet was completely detached from the surface of the bottom of the dish, the old medium was discarded and the sheet was washed twice with fresh medium at 4° C. to remove the dissolved polymer and the collagen.
(§2) During the shrinking process, the cell aggregate was examined at different times by a phase contrast microscope. Size (average values of longer diameter and shorter diameter) of the cell aggregate was measured, and % shrinkage which is a relative value considering the diameter of the cell sheet immediately after the detachment as 100% was calculated, and the results were plotted against time as shown in FIG. 1.
(§3) After a cell sheet was detached and transferred onto a hydrophobic dish in the same manner as in the Control Example, cycloheximide (here "CH") was added to the culture medium for the cell sheet to bring the concentration to 0.3 and 3μg/ml of medium, respectively. The shrinkage process of the detached cell sheet was examined by the phase contrast microscopy while the cell sheet was cultured in the culture medium containing CH in the hydrophobic dish. […] At the second day after detachment, as shown in FIG. 2A by an arrow sign, the added CH was completely removed by washing the cell aggregate with fresh culture medium and then transferring it into the vessel containing fresh culture medium.
(§4) Twelve hours before a cell sheet was detached from the cell culture substrate and transferred onto a hydrophobic dish in the same manner as in Control Example, actinomycin D (here "AD") was added to the culture medium to bring the concentration to 0.003 and 0.03 μg/ml of medium, respectively. Then the shrinkage process of the detached cell sheet was examined by phase contrast microscopy while the detached cell sheet was cultured in the culture medium containing 0.003 and 0.03 μg/ml (medium) of AD, respectively, in the hydrophobic dish.

[1] = tested on: fibroblasts derived from human skin; assay: shrinkage of detached cell sheet to spherical cell aggregate (cytotoxicity test method of the invention), phase contrast microscopy
Protocol: as §1, §2, §3, §4

[2] = conventional monolayer culture on plastic tissue culture dish, morphological change under phase contrast microscope (Comparative Example); assay type: cell-based, human; conditions: human, skin fibroblasts; conventional monolayer culture; read-out: concentration for the detection of cytotoxicity by conventional monolayer culture
Protocol: (§5) The fibroblasts derived from human skin as used in Example 1 were cultured for 3 days on a plastic tissue culture dish (Falcon, 35 mm), and then cycloheximide and actinomycin D were added, respectively, in such an amount that the concentration of the medium would be 10 μg/ml, and the morphological change of the cells was examined under a phase contrast microscope. […] In contrast, the concentration for the detection of cytotoxicity by the conventional monolayer culture such as shown in this Comparative Example was higher than 10 μg/ml.

[3] = tested on: fibroblasts derived from human skin; assay: as above; assay type: cell-based; conditions: 10 μg/ml, monolayer cultured for 3 days before addition
Protocol: as §5

[4] = AD more than 0.03 μg/ml, added twelve hours before detachment, FIG. 2B
[5] = CH more than 3 μg/ml, added after detachment and transfer, FIG. 2A

SMILES	MCC (in vitro) [µg/mL]	formation of spherical cell aggregate [1, 4]	shrinkage behavior of phase II (0.5 th to second day after detachment) [1, 4]	shrinkage after removal of AD (reversibility) ([1]; AD removed by washing at second day after detachment, FIG. 2B)	concentration of AD which inhibits phase II relative to that of CH ([1]; ratio AD to CH)	MCC [2] [µg/mL]	morphological change of the cells [3]	formation of spherical cell aggregate [1, 5]	shrinkage behavior of phase II (0.5 th to second day after detachment) [1, 5]	shrinkage after removal of CH (reversibility) ([1]; CH removed by washing at second day after detachment, FIG. 2A)
Cc1c2oc3c(C)ccc(C(=O)N[C@@H]4C(=O)N[C@H](C(C)C)C(=O)N5CCC[C@H]5C(=O)N(C)CC(=O)N(C)[C@@H](C(C)C)C(=O)O[C@@H]4C)c3nc-2c(C(=O)N[C@@H]2C(=O)N[C@H](C(C)C)C(=O)N3CCC[C@H]3C(=O)N(C)CC(=O)N(C)[C@@H](C(C)C)C(=O)O[C@@H]2C)c(N)c1=O [AD, actinomycin D] (I: T[dV]P[Sar][NMeV] / II: T[dV]P[Sar][NMeV]; ester I:1-I:C, II:1-II:C; linker I:N-II:N via Actinocin(9to1))	0.03	no formation of any spherical cell aggregate was observed	significantly interrupted	the shrinkage started again	about 1/100	> 10	No morphological change was observed at all			
C[C@@H]1C[C@@H]([C@H](O)CC2CC(=O)NC(=O)C2)C(=O)[C@@H](C)C1 [CH, cycloheximide]	3					> 10	No morphological change was observed at all	no formation of any spherical cell aggregate was observed	completely interrupted	the shrinkage started again
